We go through six compounds from patent publication EP4772530A1, “PEPTIDE TARGETING SOMATOSTATIN RECEPTOR, DRUG CONJUGATE AND USE THEREOF” (Mainline Biosciences (Shanghai) Co., Ltd., priority 2023, dated 2025).

Each structure is given as a SMILES string. Several values for one entry are separate records, joined by “and”; a condition that tells them apart may be missing. Equal entries are not always repeated. Structures can show the parent of a compound that is named as a salt. *1 amine or outer side, *2 acyl side, *3 side chain or, on linkers, in order; H or OH if unused. Where a SMILES comes first, the peptide text is derived from it. Bridges are numbered along the chain shown (N, C = ends). Roman numbers before positions name the chains, in order. [ ]: non-standard residue; d: D form. The star is where a group is joined. Hexanoyl(6-succinimido-3yl) = O=C1CC([*:1])C(=O)N1CCCCCC(=O)[*:2]; Dolaproine = CO[C@@H]([C@@H]1CCCN1)[C@@H](C)C(=O)O; Dil = CC[C@H](C)[C@H](NC)[C@@H](CC(=O)O)OC; PABC = O=C(OCc1ccc(N[*:1])cc1)[*:2]; PEG6 = NCCOCCOCCOCCOCCOCCOCCC(=O)O; X2 = C[C@@H](N*)[C@@H](O)c1ccccc1; Cit = NC(=O)NCCC[C@H](N)C(=O)O; NMeV = CN[C@H](C(=O)O)C(C)C; AEEA = NCCOCCOCC(=O)O

In one experiment the target is T1, SSTR2 (Homo sapiens, UniProt P30874).
T1 construct: expressed in transfected cells; host or cells: CHO cells (SSTR2/CHO)
The experiment is described as follows: SSTR2 cAMP test. It is filed as cell-based. As to conditions: for EC50: SSTR2/CHO cells, Forskolin, cAMP activation rate; for activity at 50 µM: Max Dose 50000 nM. The method, then:
• 1) Compound preparation: The test compound was diluted by 4-fold with DMSO to obtain 10 different concentration points. Approximately 100 nL of the diluted compound was then transferred to a cell reaction plate and centrifuged for later use. • 2) Cell preparation:The cultured SSTR2/CHO cells were collected into a sterile centrifuge tube, and the supernatant was discarded by centrifugation. • 3) The cells were resuspended in assay buffer, counted using a Vi-cell counter, and diluted with assay buffer. • 4) Approximately 100 nL of 100 µM Forskolin was transferred into the cell reaction plate using an Echo and centrifuged. Then, 10 µL of assay buffer containing the cells was added and incubated. • 5) Approximately 10 µL of cAMP detection reagent solution was added to the corresponding wells of the cell reaction plate, and incubated at room temperature in the dark. • 6) The plate was read using a microplate reader. The final value was determined as the ratio of OD at 665 nm to that at 615 nm. • 7) The cAMP value was calculated for each well: Activity (%)=(signal value of sample well - mean signal value of low-signal control wells)/ (mean signal value of high-signal control wells - mean signal value of low-signal control wells). Fitting was performed using the "Nonlinear regression (curve fit)-log(agonist) vs. response -- Variable slope" model in GraphPad Prism 5.0, with the log-transformed compound concentration on the x-axis and cAMP activation rate on the y-axis. The EC50 value of the sample was calculated accordingly. Table 2: SSTR2 cAMP Test Results

The test system of experiment [1] is Human multiple myeloma MM.1S cells. The experiment is described as follows: EX3.3 in vivo pharmacodynamics, MM.1S subcutaneous xenograft model. Details: species or system CB17 SCID mice. As to conditions: for Tumor Volume (Mean ± SEM): Ixazomib Citrate 4 mg/kg, Oral Gavage, Twice Weekly. The method, then:
Human multiple myeloma MM.1S cells were suspended and cultured in vitro in 1640 medium containing 10% fetal bovine serum, 100 U/mL penicillin, and 100 µg/mL streptomycin in a 5% CO2 incubator at 37°C. The suspended cells were collected by centrifugation twice a week and adherent cells were digested with trypsin-EDTA to prepare a cell suspension for subculture. When the cell saturation was 80%-90% and the cell number reached the requirement, the cells were collected, counted, and inoculated.
CB17 SCID mice, female, 6-8 weeks old, weighing 18-22 g, provided by Zhejiang Vital River Laboratory Animal Technology Co., Ltd.
Each mouse was subcutaneously injected with 100 µL of PBS containing 5×10^6 MM.1S cells + 100 µL of Matrigel (final volume: 200 µL) at the axilla of the right forelimb. At 20 days after injection, when the average tumor volume reached 109 mm^3, mice were grouped for dosing (vehicle control,Ixazomib Citrate, and Example 1 treatment groups, with 6 animals per group). The Ixazomib Citrate group was orally administered by gavage (4 mg/kg) twice a week; the vehicle control group (5%DMSO + 95% normal saline) and the Example 1 treatment group (1.75 mg/kg) were slowly intravenously injected for about 30 seconds each time, twice a week.
The experimental indicators were used to investigate whether tumor growth was inhibited, delayed, or cured. The tumor diameter was measured twice a week using a vernier caliper. The tumor volume was calculated as follows: V = 0.5a×b^2, where a and b were the long and short diameters of the tumor, respectively.
The anti-tumor efficacy of the drug was evaluated based on TGI (%) or relative tumor proliferation rate T/C (%). TGI (%) was the tumor growth inhibition rate. TGI (%) was calculated as follows: TGI (%)=[(1 -(mean tumor volume at the end of dosing in a certain treatment group - mean tumor volume at the start of dosing in the treatment group))/ (mean tumor volume at the end of dosing in the vehicle control group - mean tumor volume at the start of dosing in the vehicle control group)]× 100%.
T/C (%) was calculated as follows:T/C (%)= TRTV/ CRTV× 100 %. Based on the results of tumor measurement, the relative tumor volume (RTV) was calculated as follows: RTV = Vt/V0, where V0 was the mean tumor volume measured at the time of grouping (i.e. d0), and Vt was the mean tumor volume at a certain measurement. Data on the same day were taken for TRTV and CRTV.
Tumor weights were measured at the end of the experiment and T/Cweight was calculated, where Tweight and Cweight were tumor weights in the treatment and vehicle control groups, respectively.
Statistical analysis, including the mean and standard error (SEM) of tumor volume at each time point in each group (see Table 5-1 in Section 5.2 for specific data), was performed to evaluate differences between groups based on data from the treatment group on Day 18 post-dose at the end of the experiment. A t-test was used for comparison between two groups, and one-way ANOVA was used for comparison among three or more groups. If there was a significant difference in F value, the Games-Howell method was used for testing; if there was no significant difference in F value, the Dunnet (2-sided) method was used for analysis. All data were analyzed using SPSS 17.0.

Setting [2] is: 18 days after the start of dosing, Ixazomib Citrate 4 mg/kg oral gavage twice a week.

T1 sequence (P30874 whole entry): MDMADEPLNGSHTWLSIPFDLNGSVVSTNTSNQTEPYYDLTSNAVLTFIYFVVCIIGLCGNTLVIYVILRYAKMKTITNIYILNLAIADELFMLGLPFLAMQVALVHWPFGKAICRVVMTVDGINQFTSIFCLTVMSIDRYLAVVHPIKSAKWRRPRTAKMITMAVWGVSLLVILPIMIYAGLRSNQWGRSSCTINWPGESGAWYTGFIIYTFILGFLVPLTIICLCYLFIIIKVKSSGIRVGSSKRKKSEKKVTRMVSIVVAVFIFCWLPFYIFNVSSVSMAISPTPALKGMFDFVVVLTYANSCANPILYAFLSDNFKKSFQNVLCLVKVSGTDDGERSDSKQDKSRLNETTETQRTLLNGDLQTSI

Take `C[C@@H](O)[C@@H]1NC(=O)[C@H](CCCCN)NC(=O)[C@H](Cc2c[nH]c3ccccc23)NC(=O)[C@H](Cc2ccccc2)NC(=O)[C@H](Cc2ccccc2)NC(=O)[C@H](CC(N)=O)NC(=O)[C@H](CCCCN)NC(=O)[C@@H](NC(=O)[C@@H]2CCCN2)CSSC[C@@H](C(=O)N[C@@H](CCCCN)C(=O)O)NC(=O)[C@H](CO)NC(=O)[C@H](CO)NC(=O)[C@H](Cc2ccccc2)NC1=O` [Cortistatin14, reference compound] (H-PCKNFFWKTFSSCK-OH; disulfide 2-13): on SSTR2 (Max Dose 1000 nM), the activity at 1 µM is 99.7%. In addition, the response at SSTR2 was half-maximal at 1.38 nM (EC50).

Consider `CC(C)C[C@H](NC(=O)CNC(=O)c1cc(Cl)ccc1Cl)B1OC(=O)C(CC(=O)O)(CC(=O)O)O1` [Ixazomib Citrate], for which the T/C (commonly the ratio of treated to control) in experiment [1] (setting [2]) was 38.38%. Besides, the TGI (usually the reduction of tumour growth relative to the control group) in experiment [1] (setting [2]) came to 71.76%. Further, the “Tumor Volume (Mean ± SEM)” value in experiment [1] (Day 0) was 109 ± 6 mm3; in experiment [1] (Day 4), 245 ± 23 mm3; in experiment [1] (Day 7) it was 337 ± 25 mm3; in experiment [1] (Day 11) it was 452 ± 59 mm3; in experiment [1] (Day 14) it was 586 ± 100 mm3; in experiment [1] (Day 18), 781 mm3 and 781 ± 177 mm3. In addition, the “Tumor Volume (Mean ± SEM)” value is on record as 925 ± 226 mm3 in experiment [1] (Day 21), 1,139 ± 271 mm3 in experiment [1] (Day 25) and 1,365 ± 331 mm3 in experiment [1] (Day 28).

As for `CC[C@H](C)[C@@H]([C@@H](CC(=O)N1CCC[C@H]1[C@H](OC)[C@@H](C)C(=O)N[C@H](C)[C@@H](O)c1ccccc1)OC)N(C)C(=O)[C@@H](NC(=O)[C@H](C(C)C)N(C)C(=O)OCc1ccc(NC(=O)[C@H](CCCNC(N)=O)NC(=O)[C@@H](NC(=O)CCCCCN2C(=O)CC(SC[C@H](NC(=O)CCOCCOCCOCCOCCOCCOCCN)C(=O)NCCOCCOCCOCCOCCOCCOCCC(=O)N[C@@H](CCCNC(=N)N)C(=O)N[C@@H](CCCNC(=N)N)C(=O)N[C@@H](CC(C)C)C(=O)N[C@@H](Cc3ccccc3)C(=O)N[C@H]3CSSC[C@@H](C(=O)N[C@H](C(=O)N[C@@H](Cc4c[nH]c5ccccc45)C(=O)N[C@@H](CCCNC(=N)N)C(=O)N[C@@H](CC(=O)O)C(N)=O)[C@@H](C)O)NC(=O)[C@H]([C@@H](C)O)NC(=O)[C@H](CCCCN)NC(=O)[C@@H](Cc4c[nH]c5ccccc45)NC(=O)[C@H](Cc4ccc(O)cc4)NC3=O)C2=O)C(C)C)cc1)C(C)C` (stereo partly drawn) [Example 2, PEG6-Cys(MC-Val-Cit-PABC-MMAE)-PEG6-Arg-Arg-Leu-Phe-[Cys-Tyr-D-Trp-Lys-Thr-Cys]-Thr-Trp-Arg-Asp-NH2] (I: H-[PEG6]C[PEG6]RRLFCY[dW]KTCTWRD-NH2 / II: V[Cit][PABC][NMeV]V[Dil][Dolaproine]-X2; linker I:2-II:N via Hexanoyl(6-succinimido-3yl); disulfide I:8-I:13), on SSTR2, the activity at 50 µM stood at 95.4% and a half-maximal effect (EC50) was put at 477 nM.

As to `CC[C@H](C)[C@@H]([C@@H](CC(=O)N1CCC[C@H]1[C@H](OC)[C@@H](C)C(=O)N[C@H](C)[C@@H](O)c1ccccc1)OC)N(C)C(=O)[C@@H](NC(=O)[C@H](C(C)C)N(C)C(=O)OCc1ccc(NC(=O)[C@H](CCCNC(N)=O)NC(=O)[C@@H](NC(=O)CCCCCN2C(=O)CC(SC[C@H](NC(C)=O)C(=O)NCCOCCOCCOCCOCCOCCOCCC(=O)N[C@@H](CCCNC(=N)N)C(=O)N[C@@H](CCCNC(=N)N)C(=O)N[C@@H](CC(C)C)C(=O)N[C@@H](Cc3ccccc3)C(=O)N[C@H]3CSSC[C@@H](C(=O)N[C@H](C(=O)N[C@@H](Cc4c[nH]c5ccccc45)C(=O)N[C@@H](CCCNC(=N)N)C(=O)N[C@@H](CC(=O)O)C(N)=O)[C@@H](C)O)NC(=O)[C@H]([C@@H](C)O)NC(=O)[C@H](CCCCN)NC(=O)[C@@H](Cc4c[nH]c5ccccc45)NC(=O)[C@H](Cc4ccc(O)cc4)NC3=O)C2=O)C(C)C)cc1)C(C)C` (stereo partly drawn) [Example 3, Ac-Cys(MC-Val-Cit-PABC-MMAE)-PEG6-Arg-Arg-Leu-Phe-[Cys-Tyr-D-Trp-Lys-Thr-Cys]-Thr-Trp-Arg-Asp-NH2] (I: Ac-C[PEG6]RRLFCY[dW]KTCTWRD-NH2 / II: V[Cit][PABC][NMeV]V[Dil][Dolaproine]-X2; linker I:1-II:N via Hexanoyl(6-succinimido-3yl); disulfide I:7-I:12), at SSTR2, the activity at 50 µM was determined as 95.4% and the EC50 (usually the concentration needed to bring the measured effect to its halfway point) stood at 559 nM.

Compound `CC(C)C[C@H](NC(=O)[C@H](CCCNC(=N)N)NC(=O)[C@@H](N)CCCNC(=N)N)C(=O)N[C@@H](Cc1ccccc1)C(=O)N[C@H]1CSSC[C@@H](C(=O)N[C@H](C(=O)N[C@@H](Cc2c[nH]c3ccccc23)C(=O)N[C@@H](CCCNC(=N)N)C(=O)N[C@@H](CC(=O)O)C(N)=O)[C@@H](C)O)NC(=O)[C@H]([C@@H](C)O)NC(=O)[C@H](CCCCN)NC(=O)[C@@H](Cc2c[nH]c3ccccc23)NC(=O)[C@H](Cc2ccc(O)cc2)NC1=O` [SEQ ID No. 1, H-Arg-Arg-Leu-Phe-[Cys-Tyr-D-Trp-Lys-Thr-Cys]-Thr-Trp-Arg-Asp-NH2] (H-RRLFCY[dW]KTCTWRD-NH2; disulfide 5-10) came in with an activity at 100 µM on SSTR2 (Max Dose 100000 nM) of 98%. On SSTR2, this compound had an EC50 of 217 nM.

On SSTR2, `CC[C@H](C)[C@@H]([C@@H](CC(=O)N1CCC[C@H]1[C@H](OC)[C@@H](C)C(=O)N[C@H](C)[C@@H](O)c1ccccc1)OC)N(C)C(=O)[C@@H](NC(=O)[C@H](C(C)C)N(C)C(=O)OCc1ccc(NC(=O)[C@H](CCCNC(N)=O)NC(=O)[C@@H](NC(=O)CCCCCN2C(=O)CC(SC[C@H](NC(C)=O)C(=O)NCCOCCOCC(=O)NCCOCCOCC(=O)NCCOCCOCC(=O)N[C@@H](CCCNC(=N)N)C(=O)N[C@@H](CCCNC(=N)N)C(=O)N[C@@H](CC(C)C)C(=O)N[C@@H](Cc3ccccc3)C(=O)N[C@H]3CSSC[C@@H](C(=O)N[C@H](C(=O)N[C@@H](Cc4c[nH]c5ccccc45)C(=O)N[C@@H](CCCNC(=N)N)C(=O)N[C@@H](CC(=O)O)C(N)=O)[C@@H](C)O)NC(=O)[C@H]([C@@H](C)O)NC(=O)[C@H](CCCCN)NC(=O)[C@@H](Cc4c[nH]c5ccccc45)NC(=O)[C@H](Cc4ccccc4)NC3=O)C2=O)C(C)C)cc1)C(C)C` (stereo partly drawn) [Example 8, Ac-Cys(MC-Val-Cit-PABC-MMAE)-AEEA-AEEA-AEEA-Arg-Arg-Leu-Phe-[Cys-Phe-D-Trp-Lys-Thr-Cys]-Thr-Trp-Arg-Asp-NH2] (I: Ac-C[AEEA][AEEA][AEEA]RRLFCF[dW]KTCTWRD-NH2 / II: V[Cit][PABC][NMeV]V[Dil][Dolaproine]-X2; linker I:1-II:N via Hexanoyl(6-succinimido-3yl); disulfide I:9-I:14) yielded an activity at 50 µM of 98.4% and an EC50 of 404 nM.
